Data: patent US20100234306A1, “USE OF A PEPTIDE AS A THERAPEUTIC AGENT” (priority 2007, published 2010)
Where no end group is shown, it is not given here.

Tested on: drug-resistant Mycobacterium tuberculosis
Details: Mycobacterium tuberculosis resistant against PAS, streptomycin and isoniazid; Middlebrook 7H12, seven days; peptide 10 micrograms per ml

MQMKKVLDS-OH [AIP-1]
% inhibition: 100.0%
